Four molecules from US12729458B2, “Discovery and evolution of biologically active metabolites” (The Regents of the University of Colorado, a Body Corporate, priority 2020, dated 2026) can be followed below.

Data set [1] has as its system insulin receptor (IR) phosphorylation (PTP1B-mediated) in HEK293T/17 cells. Description: ELISA of insulin receptor (IR) phosphorylation in HEK293T/17 cells. The data set is classed as cell-based. The following applies: 3% DMSO, 10 minutes, starved HEK293T/17 cells, vs 3% DMSO control. The source says: Analysis of PTP1B inhibition in HEK293TCells. We prepared HEK293T/17 cells for an enzyme-linked immunosorbent assay (ELISA) by growing them in 75 cm^2 culture flasks (Corning) with DMEM media supplemented with 10% FBS, 100 units/ml penicillin, and 100 units/ml streptomycin. We replaced the media every day for 3-5 days until the cells reached 80-100% confluency.
We measured the influence of inhibitors on insulin receptor (IR) phosphorylation by using an IR-specific ELISA (FIG. 35). Briefly, we starved cells for 48 hours in FBS-free media and incubated the with inhibitors (all at 3% DMSO) for 10 minutes. After incubation, we lysed cells with lysis buffer (9803, Cell Signaling Technology) supplemented with 1× halt phosphatase inhibitor cocktail and 1× halt protease inhibitor cocktail (Thermo Fisher Scientific) for 10 min, pelleted the cell debris, and used the lysis buffer to dilute each sample to 60 mg/ml total protein. We measured IR phosphorylation in subsequent dilutions of the 60 mg/ml samples with the PathScan® Phospho-Insulin Receptor β (panTyr) Sandwich ELISA Kit (Cell Signaling Technology; #7082).
Statistical analysis and reproducibility. We determined statistical significance (FIG. 23H) with a two-tailed Student's t-test (details in TABLE 14), and we used an F-test to compare one- and two-parameter models of inhibition (TABLE 12).
In general terms: In an ELISA, binding on a coated surface is turned into a signal by an enzyme label.

In another data set the target is T1, PTP1B (PTP1B1-321) (Homo sapiens, UniProt P18031).
T1 construct: His-tag; made in house; host or cells: E. coli BL21 (DE3), pET21b
T1 sequence (P18031 1-321): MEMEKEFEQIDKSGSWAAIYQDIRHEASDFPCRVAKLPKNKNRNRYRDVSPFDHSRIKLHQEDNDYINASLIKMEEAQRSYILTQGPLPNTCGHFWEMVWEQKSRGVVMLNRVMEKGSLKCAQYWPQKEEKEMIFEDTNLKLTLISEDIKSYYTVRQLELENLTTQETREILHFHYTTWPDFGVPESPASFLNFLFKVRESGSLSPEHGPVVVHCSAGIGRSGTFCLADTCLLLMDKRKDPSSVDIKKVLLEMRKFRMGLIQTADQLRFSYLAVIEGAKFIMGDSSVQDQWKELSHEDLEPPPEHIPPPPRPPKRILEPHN
Nature of the data set: PTP1B-catalyzed hydrolysis of pNPP in the presence of terpenoids (enzyme kinetics, IC50 from best-fit models). The data set is classed as biochemical, H. sapiens. The following applies: for Ki: PTP1B1-321; for IC50: 15 mM pNPP, 10% DMSO. The procedure: Enzyme kinetics. To examine terpenoid-mediated inhibition, PTP1B-catalyzed hydrolysis of p-nitrophenyl phosphate (pNPP) was measured in the presence of various concentrations of terpenoids. Each reaction included PTP1B ([…]), pNPP (0.33, 0.67, 2, 5, 10, and 15 mM), inhibitors (110 μM, 50 μM, and 15 μM for amorphadiene; 100 μM, 50 μM, and 16.7 μM for taxadiene), and buffer (50 mM HEPES pH=7.5, 0.5 mM TCEP, 50 μg/ml BSA, 10% DMSO). The formation of p-nitrophenol was monitored by measuring absorbance at 405 nm every 10 seconds for 5 minutes on a Spectramax M2 plate reader.
Kinetic models were evaluated in three steps: (i) Initial-rate measurements collected in the absence and presence of inhibitors were fitted to Michaelis-Menten and inhibition models, respectively (here, the nlinfit and fminsearch functions from MATLAB were used). (ii) An F-test was used to compare the mixed model to the single-parameter model with the least sum squared error (here, the fcdf function from MATLAB was used to assign p-values), and the mixed model was accepted when p<0.05.
The MATLAB function “nlparci” was used to determine the confidence intervals of kinetic parameters, and those intervals were propagated to estimate corresponding confidence on IC50's.
Enzyme kinetics. To examine terpenoid-mediated inhibition, we measured PTP-catalyzed hydrolysis of p-nitrophenyl phosphate (pNPP) or 4-methylumbelliferyl phosphate (4-MUP, used when KM for pNPP was large) in the presence of various concentrations of terpenoids. Each reaction included PTP (0.05 μM PTP1B/TCPTP or 0.1 μM SHP1/SHP2 in 50 mM HEPES, 0.5 mM TCEP, 50 μg/ml BSA), pNPP (0.33, 0.67, 2, 5, 10, and 15 mM) or 4-MUP (0.13, 0.27, 0.8, 2.27, 2.93, 4.53, 7.07, and 8 mM), inhibitor (with concentrations listed in the figures), buffer (50 mM HEPES pH=7.3, 50 μg/ml BSA), and DMSO at 10% v/v. We monitored the formation of p-nitrophenol by measuring absorbance at 405 nm every 10 seconds for 5 minutes on a SpectraMax M2 plate reader and the formation of 4-methylumbelliferyl by measuring fluorescence at 450 nm (370 nm ex, 435 nm cutoff, medium gain).
We used a custom MATLAB script to process all raw kinetic data. This script removed all concentration values that fell outside of either (i) the range of our standard curve (absorbance/fluorescence vs. μM; FIG. 39) or (ii) the initial rate regime (>10% of the pNPP or 4-MUP concentration used in the assay). When this step reduced kinetic dataset to fewer than ten points, we re-measured those datasets to collect at least ten. We fit final datasets, in turn, with a linear regression model (using Matlab's backslash operator).
We evaluated kinetic models in three steps: (i) We fit initial-rate measurements collected in the absence and presence of inhibitors to Michaelis-Menten and inhibition models, respectively (here, we used the nlinfit and fminsearch functions from MATLAB; TABLE 12). (ii) We used an F-test to compare the mixed model to the single-parameter model with the least sum squared error (here, we used the fedf function from MATLAB to assign p-values), and we accepted the mixed model when p<0.05.

A further data set has as its target T2, PTP1B (Homo sapiens, UniProt P18031).
T2 construct: In this study, we used a well-studied truncation variant (i.e., PTP1B1-321); His-tag; made in house; host or cells: E. coli BL21 (DE3), pET21b
T2 sequence (P18031 1-321): T1 sequence (P18031 1-321)
Nature of the data set: X-ray crystallography of PTP1B soaked with ligand. Type of data set: binding, H. sapiens. The procedure: X-ray crystallography. We prepared crystals of PTP1B by using hanging drop vapor diffusion. In brief, we added 2 μL of PTP1B (~600 μM PTP1B, 50 mM HEPES, pH 7.3) to 6 μL of crystallization solution (100 mM HEPES, 200 mM magnesium acetate, and 14% polyethylene glycol 8000, pH 7.5) and incubated the resulting droplets over crystallization solution for one week at 4° C. (EasyXtal CrystalSupport, Qiagen). We soaked crystals with ligand by transferring them to droplets formed with 6 μL of crystallization solution and 1 μL of ligand solution (10 mM in DMSO), which we incubated for 2-5 days at 4° C. We prepared all […] for freezing by soaking them in cryoprotectant formed from a 70/30 (v/v) mixture of buffer (100 mM HEPES, 200 mM magnesium acetate, and 25% polyethylene glycol 8000, pH 7.5) and glycerol.
We collected X-ray diffraction data through the Collaborative Crystallography Program at Lawrence Berkeley National Lab (ALS ENABLE, beamline 8.2.1, 100 K, 1.00003 Å). We performed integration, scaling, and merging of X-ray diffraction data using the xia2 software package^79, and we carried out molecular replacement and structure refinement with the PHENIX graphical interface,^80 supplemented with manual model adjustment in COOT^81 and one round of PDB-REDO^82 (the latter, only for the PTP1B-AD complex).

Where [2] appears, read: competitive model of inhibition, read-out: Fit par. Ki, competitive model.
[3] abbreviates: mixed model, uncompetitive constant, read-out: Fit par. Ki,u, mixed model.
Where [4] appears, read: noncompetitive model of inhibition, read-out: Fit par. Ki, noncompetitive model.
[5] abbreviates: uncompetitive model of inhibition, read-out: Fit par. Ki, uncompetitive model.

The structures appear in SMILES notation. Like-named read-outs stand apart in the source and are kept apart here.

One may read the Ki as the dissociation constant of the complex between target and ligand, obtained from inhibition or displacement. As for `CC(C)=CCC[C@](C)(O)[C@@H]1CC=C(C)CC1` [α-bisabolol, reference compound], the “IR phosphorylation (ELISA signal)” value in data set [1] (405 μM) was “reduction in signal”; in data set [1] (405 μM, listed as ABOL), “reduced signals”. The Ki is 178 µM at PTP1B (PTP1B1-321) (setting [2]), 469 µM on PTP1B (PTP1B1-321) (setting [3]), 541 µM on PTP1B (PTP1B1-321) (setting [4]) and 469 µM at PTP1B (PTP1B1-321) (setting [5]). Besides, the “solubility (crystal soaking experiments)” value at PTP1B is “soluble”.
In general, IC50 refers to the concentration that inhibits the measured activity by half. With `CC1=C[C@@H]2C(=C(C)CC[C@H]2C(C)C)CC1` [(+)-1 (10),4-cadinadiene], the concentration for half-maximal inhibition (IC50) on PTP1B (PTP1B1-321) (Example 2, HEPES pH 7.3, ± 95% confidence interval) was found to be 165 ± 33 µM. In addition, the Ki at PTP1B (PTP1B1-321) (setting [2]) was found to be 14.8 µM; at PTP1B (PTP1B1-321) (mixed model, competitive constant, read-out: Fit par. Ki,c, mixed model), 5690 µM; on PTP1B (PTP1B1-321) (setting [3]), 169 µM; at PTP1B (PTP1B1-321) (setting [4]), 190 µM; on PTP1B (PTP1B1-321) (setting [5]), 168 µM.
Regarding `CC1=CCC[C@@]2(C)CCC3=C(C)CC[C@@H](C[C@H]12)C3(C)C` [taxadiene], on PTP1B (PTP1B1-321) (Example 1, HEPES pH 7.5), the IC50 came to 119 µM. Moreover, the “model (mode) of PTP1B inhibition from Michaelis-Menten fits” value on PTP1B (PTP1B1-321) (pNPP initial rates) was “mixed inhibition”.
Take `CC1=C[C@H]2[C@@H](CC1)[C@H](C)CC[C@H]2[C@@H](C)C(=O)O` [dihydroartemisinic acid, reference compound]: the “IR phosphorylation (ELISA signal)” value in data set [1] (930 μM) is given as “reduction in signal”; in data set [1] (930 μM, listed as DHA), “reduced signals”. Besides, the Ki at PTP1B (PTP1B1-321) (setting [2]) amounted to 178 µM; on PTP1B (PTP1B1-321) (setting [3]), 469 µM; at PTP1B (PTP1B1-321) (setting [4]) it was 541 µM; on PTP1B (PTP1B1-321) (setting [5]) it was 469 µM.
